# Test results from PubChem BioAssay AID1259407 (Chemical Carcinogenesis Research Information System (CCRIS), 2018).
# Calls of active or inactive are those of the source. No rule for the calls is given here.
# Tested on: CCRIS mutagenicity, Ames/micronucleus/aberration tests
# Assay: CCRIS mutagenicity studies
# [1] = Test System: AMES SALMONELLA TYPHIMURIUM, Strain/Indicator: TA100, Metabolic Activation: NONE, Method: STANDARD PLATE
# [2] = Test System: AMES SALMONELLA TYPHIMURIUM, Strain/Indicator: TA100, Metabolic Activation: RAT, LIVER, S-9, AROCLOR 1254, Method: STANDARD PLATE
# [3] = Test System: AMES SALMONELLA TYPHIMURIUM, Strain/Indicator: TA102, Metabolic Activation: NONE, Method: STANDARD PLATE
# [4] = Test System: AMES SALMONELLA TYPHIMURIUM, Strain/Indicator: TA98, Metabolic Activation: NONE, Method: STANDARD PLATE
# [5] = Test System: AMES SALMONELLA TYPHIMURIUM, Strain/Indicator: TA1535, Metabolic Activation: NONE, Method: STANDARD PLATE
compound,measurement,setting,value
CCCCN(N)CCCC,mutagenic call,"Test System: AMES SALMONELLA TYPHIMURIUM, Strain/Indicator: TA100, Metabolic Activation: NONE, Method: PREINCUBATION (11 HR GROWTH PERIOD FOR BACTERIA)",active; positive
same,mutagenic call,[1],inactive; negative
same,mutagenic call,[2],inactive; negative
same,mutagenic call,"Test System: AMES SALMONELLA TYPHIMURIUM, Strain/Indicator: TA100, Metabolic Activation: RAT, LIVER, S-9, PCB, Method: PREINCUBATION (11 HR GROWTH PERIOD FOR BACTERIA)",inactive; negative
same,mutagenic call,"Test System: AMES SALMONELLA TYPHIMURIUM, Strain/Indicator: TA102, Metabolic Activation: NONE, Method: PREINCUBATION (5 HR GROWTH PERIOD FOR BACTERIA)",active; positive
same,mutagenic call,"Test System: AMES SALMONELLA TYPHIMURIUM, Strain/Indicator: TA102, Metabolic Activation: NONE, Method: PREINCUBATION (7 HR GROWTH PERIOD FOR BACTERIA)",inactive; negative
same,mutagenic call,[3],inactive; negative
same,mutagenic call,"Test System: AMES SALMONELLA TYPHIMURIUM, Strain/Indicator: TA102, Metabolic Activation: RAT, LIVER, S-9, AROCLOR 1254, Method: STANDARD PLATE",inactive; negative
same,mutagenic call,"Test System: AMES SALMONELLA TYPHIMURIUM, Strain/Indicator: TA102, Metabolic Activation: RAT, LIVER, S-9, PCB, Method: PREINCUBATION (5 OR 7 HR GROWTH PERIOD FOR BACTERIA)",inactive; negative
O=[N+]([O-])c1ccc2cn[nH]c2c1,mutagenic call,[4],active; positive
CCCC(c1cc(C(C)(C)C)c(O)cc1C)c1cc(C(C)(C)C)c(O)cc1C,mutagenic call,[4],inactive; negative
same,mutagenic call,"Test System: AMES SALMONELLA TYPHIMURIUM, Strain/Indicator: TA98, Metabolic Activation: S-9, Method: STANDARD PLATE",inactive; negative
same,mutagenic call,[1],inactive; negative
same,mutagenic call,"Test System: AMES SALMONELLA TYPHIMURIUM, Strain/Indicator: TA100, Metabolic Activation: S-9, Method: STANDARD PLATE",inactive; negative
[N-]=[N+]=NCC(O)Cn1cnc2c(N)ncnc21 (centres undefined),mutagenic call,[1],active; positive
CCN(Cc1cccc(S(=O)(=O)O)c1)c1ccc(C(=C2C=CC(=[N+](CC)Cc3cccc(S(=O)(=O)O)c3)C=C2)c2ccc(O)cc2S(=O)(=O)[O-])cc1,mutagenic call,"End Point: IN VIVO MICRONUCLEUS, Test System: BONE MARROW POLYCHROMATIC ERYTHROCYTES, Species: MOUSE, Strain/Sex: DDY/MALE, Route: IP",inactive; negative
same,mutagenic call,"Test System: Mouse lymphoma, Strain/Indicator: L5178Y (tk+/tk-), Metabolic Activation: None, Method: Suspension/plate",inactive; negative
same,mutagenic call,"Test System: Mouse lymphoma, Strain/Indicator: L5178Y (tk+/tk-), Metabolic Activation: Rat, Liver, S-9, Aroclor 1254, Method: Suspension/plate",inactive; negative
C=C(C)C(=O)OCCCCCOC(=O)C(=C)C,mutagenic call,[4],inactive; negative
same,mutagenic call,"Test System: AMES SALMONELLA TYPHIMURIUM, Strain/Indicator: TA98, Metabolic Activation: RAT, LIVER, S-9, AROCLOR 1254, Method: STANDARD PLATE",inactive; negative
same,mutagenic call,"Test System: AMES SALMONELLA TYPHIMURIUM, Strain/Indicator: TA98, Metabolic Activation: RAT, LIVER, S-9, SODIUM PHENOBARBITAL, Method: STANDARD PLATE",inactive; negative
same,mutagenic call,[1],inactive; negative
same,mutagenic call,[2],inactive; negative
same,mutagenic call,"Test System: AMES SALMONELLA TYPHIMURIUM, Strain/Indicator: TA100, Metabolic Activation: RAT, LIVER, S-9, SODIUM PHENOBARBITAL, Method: STANDARD PLATE",inactive; negative
same,mutagenic call,[5],inactive; negative
same,mutagenic call,"Test System: AMES SALMONELLA TYPHIMURIUM, Strain/Indicator: TA1535, Metabolic Activation: RAT, LIVER, S-9, AROCLOR 1254, Method: STANDARD PLATE",inactive; negative
same,mutagenic call,"Test System: AMES SALMONELLA TYPHIMURIUM, Strain/Indicator: TA1535, Metabolic Activation: RAT, LIVER, S-9, SODIUM PHENOBARBITAL, Method: STANDARD PLATE",inactive; negative
same,mutagenic call,"Test System: AMES SALMONELLA TYPHIMURIUM, Strain/Indicator: TA1537, Metabolic Activation: NONE, Method: STANDARD PLATE",inactive; negative
same,mutagenic call,"Test System: AMES SALMONELLA TYPHIMURIUM, Strain/Indicator: TA1537, Metabolic Activation: RAT, LIVER, S-9, AROCLOR 1254, Method: STANDARD PLATE",inactive; negative
same,mutagenic call,"Test System: AMES SALMONELLA TYPHIMURIUM, Strain/Indicator: TA1537, Metabolic Activation: RAT, LIVER, S-9, SODIUM PHENOBARBITAL, Method: STANDARD PLATE",inactive; negative
same,mutagenic call,"Test System: AMES SALMONELLA TYPHIMURIUM, Strain/Indicator: TA1538, Metabolic Activation: NONE, Method: STANDARD PLATE",inactive; negative
same,mutagenic call,"Test System: AMES SALMONELLA TYPHIMURIUM, Strain/Indicator: TA1538, Metabolic Activation: RAT, LIVER, S-9, AROCLOR 1254, Method: STANDARD PLATE",inactive; negative
same,mutagenic call,"Test System: AMES SALMONELLA TYPHIMURIUM, Strain/Indicator: TA1538, Metabolic Activation: RAT, LIVER, S-9, SODIUM PHENOBARBITAL, Method: STANDARD PLATE",inactive; negative
CN(Cc1cccc(Br)c1)N=O,mutagenic call,"Test System: AMES SALMONELLA TYPHIMURIUM, Strain/Indicator: TA1535, Metabolic Activation: HAMSTER, LIVER, S-9, AROCLOR 1254, Method: STANDARD PLATE",active; positive
same,mutagenic call,[5],inactive; negative
[Ag][I],mutagenic call,"Test System: AMES SALMONELLA TYPHIMURIUM, Strain/Indicator: TA97, Metabolic Activation: NONE, Method: STANDARD PLATE",inactive; negative
same,mutagenic call,"Test System: AMES SALMONELLA TYPHIMURIUM, Strain/Indicator: TA97, Metabolic Activation: RAT LIVER S-9, AROCLOR 1254, Method: STANDARD PLATE",active; positive
same,mutagenic call,[4],inactive; negative
same,mutagenic call,"Test System: AMES SALMONELLA TYPHIMURIUM, Strain/Indicator: TA98, Metabolic Activation: RAT LIVER S-9, AROCLOR 1254, Method: STANDARD PLATE",inactive; negative
same,mutagenic call,[3],active; positive
same,mutagenic call,"Test System: AMES SALMONELLA TYPHIMURIUM, Strain/Indicator: TA102, Metabolic Activation: RAT LIVER S-9, AROCLOR 1254, Method: STANDARD PLATE",inactive; negative
same,mutagenic call,[5],inactive; negative
same,mutagenic call,"Test System: AMES SALMONELLA TYPHIMURIUM, Strain/Indicator: TA1535, Metabolic Activation: RAT LIVER S-9, AROCLOR 1254, Method: STANDARD PLATE",inactive; negative
CCn1c2ccccc2c2cc(C=O)ccc21,mutagenic call,"End Point: IN VITRO CHROMOSOMAL ABERRATIONS, Test System: CHL CELLS, Metabolic Activation: RAT, LIVER, S-9, SODIUM PHENOBARBITAL AND 5,6-BENZOFLAVONE",active; positive (structural changes)
